Data set [1] concerns formation of osteoclasts in co-culture of bone marrow cells and osteoblasts. Description: Osteoclastogenesis inhibition via co-culture system (TRAP staining). The class given is cell-based, mice. To be noted: 1 μM compound, 7 days co-culture, TRAP-positive multinucleated osteoclasts vs vehicle control. How it is done:
Osteoclastogenesis inhibitory effects of the compounds of the present invention were evaluated via a co-culture system (Reference: Endocrinology 137(1996), 2187 to 2190, E. Jimi et al.). A specific experimental method is as follows.
1) Preparation of Bone Marrow Cells and Osteoblasts
Femora and tibia were aseptically dissected from 6 to 8-week-old male ddY mice to harvest bone marrow cells by a conventional method using a syringe. In brief, tissues were removed from the dissected bone, the bone ends were cut off with scissors, and the bone marrow was isolated by pushing a medium-containing syringe (23G) against the one end of the cut bone. The isolated bone marrow was subjected to repeated piston movement of a syringe such that single cells were obtained (Reference: Endocrinology 123(1988), 2600 to 2602, Takahashi et al.). After removal of red blood cells within the bone marrow, the bone marrow cells recovered by centrifugation were placed in an α-MEM supplemented with 10% fetal bovine serum (FBS), followed by counting of nucleated cells and then were immediately used for a co-culture system.
2) Osteoclastogenesis Inhibition Experiment Via Co-Culture System
As the medium used for a co-culture system, a differentiation medium with the addition of differentiation factors 1α,25-dihydroxyvitamin D3 (10^−8M) and dexamethasone (10^−8M) to a-MEM supplemented with 10% FBS was used for the induction of osteoclastogenesis. First, the compounds dissolved in dimethyl sulfoxide (DMSO) at a concentration of 1 mM were diluted to 2 μM using the above-mentioned differentiation medium. As a vehicle control group, 0.2% (v/v) DMSO was added to the medium. 100 μL/well of each medium was added to 96-well plates. In addition, the above prepared bone marrow cells and osteoblasts were plated onto 96-well plates at a density of 1×10^5 cells/50 μL/well and 3×10^3 cells/50 μL/well, respectively. The total volume/well was 200 μL and the final compound concentration was 1 μM. The control group was 0.1% DMSO. The cells were cultured with exchange of the culture media with fresh media containing differentiation factors and test materials at an interval of 2 to 3 days.
7 days after culturing of cells, the formation of multinucleated osteoclasts was confirmed by microscopic examination, the medium was removed from the wells and then the cells were fixed in a 10% phosphate-buffered formalin solution. The degree of formation of mature osteoclasts was measured taking advantage of the characteristics of osteoclasts showing a positive reaction to a tartrate-resistant acid phosphatase (TRAP) staining solution. The TRAP staining solution was prepared in a manner such that naphthol AS-MS phosphate as a substrate and a coloring agent (Fast Red Violet LB salt) were dissolved in N,N-dimethylformamide, and a 0.1N NaHCO3 buffer solution containing 50 mM of tartaric acid was added thereto. Among the TRAP-positive cells under a light microscope, multinucleated osteoclasts having 6 to 7 nuclei were regarded as mature osteoclasts.
The degree of inhibition of osteoclastogenesis was calculated according to the following equation 1. The results are summarized in Table 27 below (Experiments were carried out for 4 wells/experimental group (n=4), and the results are given in terms of mean±standard deviation)
Inhibition of osteoclastogenesis(%)=(1−numbers of osteoclasts observed in experimental group/numbers of osteoclasts observed in vehicle control group)×100(%) [Equation 1]

Data set [2] relates to Osteoblasts (Calvarial cells). Description: Cytotoxicity test (MTT). To be noted: 1 μM compound, 72 hours, in comparison with vehicle control.
Experimental: For the preparation of osteoblasts (Calvarial cells), the calvaria were aseptically dissected from 1 to 2-day-old neonatal ICR mice and subjected to continuous reaction with a 0.2% collagenase solution to separate osteoblasts. The cell-suspended supernatant was centrifuged to recover osteoblasts which were grown to full confluence in an α-MEM supplemented with 10% FBS and then diluted to a desired cell density for use in the experiment.
Cytotoxicity of the compounds of the present invention was evaluated by carrying out the experiment described below.
The vehicle control group was established to contain 0.2% DMSO. 100 μL/well of the diluted drugs were dispensed into 96-well plates to which osteoblasts (calvarial cells) prepared in Experimental Example 1 were then added at a density of 1.0×10^4 cells/100 μL/well. Here, the final compound concentration in the cell culture was 1 μM, and the vehicle control group contained 0.1% DMSO. The cells were cultured in a 5% CO2 inhibitor at 37° for 72 hours. 25 μL of 3-(4,5-dimethyl-2-thiazolyl)-2,5-diphenyl-2H-tetrazolium bromide (MTT) dissolved in PBS (2 mg/mL) was added to each cell culture 4 hours before the end of culture. After completion of the reaction, the plates were centrifuged, the media were discarded, and 100 μL of formazan was added and dissolved in dimethyl sulfoxide (DMSO). Finally, the absorbance of the developed plates was measured at 540 nm. The cell viability was expressed as % concentration in comparison with the vehicle control group.

As for `CN1CCN(c2ccc([N+](=O)[O-])c(Nc3ccc(N4CCSCC4)c(F)c3)n2)CC1` [Compound 212, 2-[(3-fluoro-4-thiomorpholino)phenylamino]-6-(4-methylpiperazin-1-yl)-3-nitropyridine], in data set [1], the “Osteoclastogenesis inhibition (%) 1 μM” value amounted to 85%. Further, the “Cell viability (%) Calvarial cell” value in data set [2] is 100%.

For the compound `NC1CCN(c2ccc([N+](=O)[O-])c(Nc3ccc(N4CCSCC4)c(F)c3)n2)CC1` [Compound 214, 2-[(3-fluoro-4-thiomorpholino)phenylamino]-6-(4-aminopiperidino)-3-nitropyridine], in data set [1], the “Osteoclastogenesis inhibition (%) 1 μM” value was 98%. Further, in data set [2], the “Cell viability (%) Calvarial cell” value was found to be 103%.

Regarding `O=[N+]([O-])c1ccc(NCc2cccnc2)nc1Nc1ccc(N2CCNCC2)c(F)c1` [Compound 220, 2-[(3-fluoro-4-piperazino)phenylamino]-6-[(3-pyridyl)methylamino]-3-nitropyridine], the “Osteoclastogenesis inhibition (%) 1 μM” value in data set [1] came out at 82%. The “Cell viability (%) Calvarial cell” value in data set [2] amounted to 93%.

As to `O=[N+]([O-])c1ccc(NCc2ccncc2)nc1Nc1ccc(N2CCNCC2)c(F)c1` [Compound 221, 2-[(3-fluoro-4-piperazino)phenylamino]-6-[(4-pyridyl)methylamino]-3-nitropyridine], the “Osteoclastogenesis inhibition (%) 1 μM” value in data set [1] was 89%. In addition, the “Cell viability (%) Calvarial cell” value in data set [2] was found to be 91%.

As to `O=[N+]([O-])c1ccc(N2CCC(O)CC2)nc1Nc1ccc(N2CCCCC2)c(F)c1` [Compound 226, 2-[(3-fluoro-4-piperidino)phenylamino]-6-(4-hydroxypiperidino)-3-nitropyridine], the “Osteoclastogenesis inhibition (%) 1 μM” value in data set [1] is recorded as 66%. Besides, in data set [2], the “Cell viability (%) Calvarial cell” value is on record as 104%.

As to `CC(C)c1nccn1-c1ccc([N+](=O)[O-])c(Nc2ccc(N3CCCCC3)c(F)c2)n1` [Compound 228, 2-[(3-fluoro-4-piperidino)phenylamino]-6-[(2-isopropyl)imidazol-1-yl]-3-nitropyridine], the “Osteoclastogenesis inhibition (%) 1 μM” value in data set [1] came out at 73%. Moreover, in data set [2], the “Cell viability (%) Calvarial cell” value was found to be 99%.

As for `CN1CCN(c2ccc([N+](=O)[O-])c(Nc3ccc(N4CCCCC4)c(F)c3)n2)CC1` [Compound 232, 2-[(3-fluoro-4-piperidino)phenylamino]-6-(4-methylpiperazin-1-yl)-3-nitropyridine], the “Osteoclastogenesis inhibition (%) 1 μM” value in data set [1] was 86%. Also, the “Cell viability (%) Calvarial cell” value in data set [2] came to 100%.

`O=[N+]([O-])c1ccc(N2CCNCC2)nc1Nc1ccc(N2CCCCC2)c(F)c1` [Compound 233, 2-[(3-fluoro-4-piperidino)phenylamino]-6-(piperazin-1-yl)-3-nitropyridine]: the “Osteoclastogenesis inhibition (%) 1 μM” value in data set [1] was found to be 96%. Also, the “Cell viability (%) Calvarial cell” value in data set [2] was 102%.

Consider `NC1CCN(c2ccc([N+](=O)[O-])c(Nc3ccc(N4CCCCC4)c(F)c3)n2)CC1` [Compound 234, 2-[(3-fluoro-4-piperidino)phenylamino]-6-(4-aminopiperidino)-3-nitropyridine], for which the “Osteoclastogenesis inhibition (%) 1 μM” value in data set [1] stood at 100%. Moreover, the “Cell viability (%) Calvarial cell” value in data set [2] turned out to be 94%.

On to `CC(C)CNc1ccc([N+](=O)[O-])c(Nc2ccc(N3CCC(O)CC3)c(F)c2)n1` [Compound 238, 2-{[3-fluoro-4-(4-hydroxypiperidino)]phenylamino}-6-(isobutylamino)-3-nitropyridine], for which, in data set [1], the “Osteoclastogenesis inhibition (%) 1 μM” value is reported as 75%. Also, the “Cell viability (%) Calvarial cell” value in data set [2] came to 106%.

Consider `O=[N+]([O-])c1ccc(NCc2cccnc2)nc1Nc1ccc(N2CCC(O)CC2)c(F)c1` [Compound 241, 2-{[3-fluoro-4-(4-hydroxypiperidino)]phenylamino}-6-[(3-pyridyl)methylamino]-3-nitropyridine], for which, in data set [1], the “Osteoclastogenesis inhibition (%) 1 μM” value is 87%. Further, the “Cell viability (%) Calvarial cell” value in data set [2] was determined as 100%.

For the compound `O=[N+]([O-])c1ccc(NCc2ccncc2)nc1Nc1ccc(N2CCC(O)CC2)c(F)c1` [Compound 242, 2-{[3-fluoro-4-(4-hydroxypiperidino)]phenylamino}-6-[(4-pyridyl)methylamino]-3-nitropyridine], the “Osteoclastogenesis inhibition (%) 1 μM” value in data set [1] worked out at 93%. The “Cell viability (%) Calvarial cell” value in data set [2] is 114%.

The values are drawn from patent US20110306606A1, “NOVEL 2,6-SUBSTITUTED-3-NITROPYRIDINE DERIVATIVE, METHOD FOR PREPARING SAME, AND PHARMACEUTICAL COMPOSITION INCLUDING SAME” (priority 2008, published 2011).
